These results are taken from patent publication US9676704B2, “Pesticidal compositions and processes related thereto” (Dow AgroSciences LLC, priority 2014, dated 2017).

The test system of data set [1] is Beet Armyworm (BAW). Nature of the data set: Bioassays on BAW, 128-well diet tray assay. Format: in vivo. The conditions noted are these: Spodoptera exigua, 168 h; 50 μg/cm^2 on artificial diet, second instar larvae, five to seven days, 25° C.; read-out: BAW % Control (or Mortality) rating. As for the experimental part: Bioassays on BAW were conducted using a 128-well diet tray assay. one to five second instar BAW larvae were placed in each well (3 mL) of the diet tray that had been previously filled with 1 mL of artificial diet to which 50 μg/cm^2 of the test compound (dissolved in 50 μL of 90:10 acetone-water mixture) had been applied (to each of eight wells) and then allowed to dry. Trays were covered with a clear self-adhesive cover, and held at 25° C., 14:10 light-dark for five to seven days. Percent mortality was recorded for the larvae in each well; activity in the eight wells was then averaged. The results are indicated in the tables entitled “Table ABC: Assay Results (F)”, “Table ABCD: Assay Results (C)”, and “Table ABCDE: Assay Results (P)” (See Table Section).
(§1) Bioassays on BAW and CL were conducted according to the procedures outlined in Example A: Bioassays on Beet Armyworm (“BAW”) and Cabbage Looper (“CL”) using the following concentrations: 5, 0.5, and 0.05 μg/cm^2.

For data set [2], the system named is Cabbage Looper (CL). The data set is described as follows: Bioassays on CL, 128-well diet tray assay. The class given is in vivo. The note with it: Trichoplusia ni, 168 h; 50 μg/cm^2 on artificial diet, second instar larvae, five to seven days, 25° C.; read-out: CL % Control (or Mortality) rating. The method, then:
Bioassays on CL were conducted using a 128-well diet tray assay. One to five second instar CL larvae were placed in each well (3 mL) of the diet tray that had been previously filled with 1 mL of artificial diet to which 50 μg/cm^2 of the test compound (dissolved in 50 μL of 90:10 acetone-water mixture) had been applied (to each of eight wells) and then allowed to dry. Trays were covered with a clear self-adhesive cover, and held at 25° C., 14:10 light-dark for five to seven days. Percent mortality was recorded for the larvae in each well; activity in the eight wells was then averaged. The results are indicated in the table entitled “Table ABC: Assay Results (F)”, “Table ABCD: Assay Results (C)”, and “Table ABCDE: Assay Results (P)” (See Table Section).
as §1

The subject of data set [3] is Yellow Fever Mosquito (YFM). Format: in vivo, Aedes aegypti. The conditions noted are these: 15 μL of diluted 4000 ppm master solution per well, about 1 day-old larvae, 3 days. As for the experimental part:
Master plates containing 400 μg of a molecule dissolved in 100 μL of dimethyl sulfoxide (DMSO) (equivalent to a 4000 ppm solution) are used. A master plate of assembled molecules contains 15 μL per well. To this plate, 135 μL of a 90:10 water:acetone mixture is added to each well. A robot (Biomek® NXP Laboratory Automation Workstation) is programmed to dispense 15 μL aspirations from the master plate into an empty 96-well shallow plate (“daughter” plate). There are 6 reps (“daughter” plates) created per master. The created daughter plates are then immediately infested with YFM larvae. The day before plates are to be treated, mosquito eggs are placed in Millipore water containing liver powder to begin hatching (4 g. into 400 mL). After the daughter plates are created using the robot, they are infested with 220 μL of the liver powder/larval mosquito mixture (about 1 day-old larvae). After plates are infested with mosquito larvae, a non-evaporative lid is used to cover the plate to reduce drying. Plates are held at room temperature for 3 days prior to grading. After 3 days, each well is observed and scored based on mortality. The results are indicated in the table entitled “Table ABC: Assay Results (F)” and “Table ABCD: Assay Results (C)” (See Table Section). Pesticidally Acceptable Acid Addition Salts, Salt Derivatives, Solvates, Ester Derivatives, Polymorphs, Isotopes and Radionuclides

Regarding `C[C@H](NC(=O)CCC(C)(C)C)NC(=O)c1ccc(/C=C/C(c2cc(Cl)c(Cl)c(Cl)c2)C(F)(F)F)cc1C(F)(F)F` (stereo partly drawn) [Compound F17, N—((R)-1-(4,4-Dimethylpentanamido)ethyl)-4-((E)-4,4,4-trifluoro-3-(3,4,5-trichlorophenyl)but-1-en-1-yl)-2-(trifluoromethyl)benzamide], the mortality at 50 µg/cm2 in data set [1] and in data set [2] was 50 to 100% in each case. Besides, the “YFM % Control (or Mortality) rating” value in data set [3] is on record as “A (80-100)”.
With `C[C@H](NC(=O)CCCC(C)(C)C)NC(=O)c1ccc(/C=C/C(c2cc(Cl)c(Cl)c(Cl)c2)C(F)(F)F)cc1C(F)(F)F` (stereo partly drawn) [Compound F18, N—((R)-1-(5,5-Dimethylhexanamido)ethyl)-4-((E)-4,4,4-trifluoro-3-(3,4,5-trichlorophenyl)but-1-en-1-yl)-2-(trifluoromethyl)benzamide], the mortality at 50 µg/cm2 in data set [1] and in data set [2] was 50 to 100% in each case. The “YFM % Control (or Mortality) rating” value in data set [3] is listed as “A (80-100)”.
For `CN(CCNC(=O)c1ccc(/C=C/C(c2cc(Cl)c(Cl)c(Cl)c2)C(F)(F)F)cc1C(F)(F)F)C(=O)CC(F)(F)F` (stereo not drawn) [Compound F20, (E)-4-(4,4,4-trifluoro-3-(3,4,5-trichlorophenyl)but-1-en-1-yl)-N-(2-(3,3,3-trifluoro-N-methylpropanamido)ethyl)-2-(trifluoromethyl)benzamide], the mortality at 50 µg/cm2 in data set [1] and in data set [2] was 50 to 100% in each case. For the same molecule, the “YFM % Control (or Mortality) rating” value in data set [3] is recorded as “A (80-100)”.
In the case of `CN(CCNC(=O)c1ccc(/C=C/C(c2cc(Cl)c(Cl)c(Cl)c2)C(F)(F)F)cc1C(F)(F)F)C(=O)C(F)(F)F` (stereo not drawn) [Compound F21, (E)-4-(4,4,4-trifluoro-3-(3,4,5-trichlorophenyl)but-1-en-1-yl)-N-(2-(2,2,2-trifluoro-N-methylacetamido)ethyl)-2-(trifluoromethyl)benzamide], the mortality at 50 µg/cm2 in data set [1] and in data set [2] was 50 to 100% in each case. Moreover, in data set [3], the “YFM % Control (or Mortality) rating” value is listed as “B (More than 0-Less than 80)”.
With `CN(NC(=O)c1ccc(/C=C/C(c2cc(Cl)c(Cl)c(Cl)c2)C(F)(F)F)cc1C(F)(F)F)C(=O)CC(F)(F)F` (stereo not drawn) [Compound F22, (E)-N′-methyl-4-(4,4,4-trifluoro-3-(3,4,5-trichlorophenyl)but-1-en-1-yl)-2-(trifluoromethyl)-N′-(3,3,3-trifluoropropanoyl)benzohydrazide], the mortality at 50 µg/cm2 in data set [1] and in data set [2] was 50 to 100% each time. Further, the “YFM % Control (or Mortality) rating” value in data set [3] is listed as “A (80-100)”.
For the molecule `CN(NC(=O)c1ccc(/C=C/C(c2cc(Cl)c(Cl)c(Cl)c2)C(F)(F)F)cc1C(F)(F)F)C(=O)CCC(F)(F)F` (stereo not drawn) [Compound F23, (E)-N′-Methyl-4-(4,4,4-trifluoro-3-(3,4,5-trichlorophenyl)but-1-en-1-yl)-N′-(4,4,4-trifluorobutanoyl)-2-(trifluoromethyl)benzohydrazide], the mortality at 50 µg/cm2 in data set [1] and in data set [2] was 50 to 100% in each case. In data set [3], the “YFM % Control (or Mortality) rating” value is “A (80-100)”.
Turning to `C[C@H](NC(=O)CC(F)(F)F)NC(=O)c1ccc(/C=C/C(c2cc(Br)c(Cl)c(Br)c2)C(F)(F)F)cc1C(F)(F)F` (stereo partly drawn) [Compound P2, 4-((E)-3-(3,5-Dibromo-4-chlorophenyl)-4,4,4-trifluorobut-1-en-1-yl)-2-(trifluoromethyl)-N—((R)-1-(3,3,3-trifluoropropanamido)ethyl)benzamide], the mortality at 50 µg/cm2 in data set [1] and in data set [2] was 50 to 100% in each case. Besides, the “YFM % Control (or Mortality) rating” value in data set [3] is recorded as “A (80-100)”.
In the case of `C[C@H](NC(=O)CC(F)(F)F)NC(=O)c1ccc(/C=C/C(c2cc(Br)cc(Br)c2)C(F)(F)F)cc1C(F)(F)F` (stereo partly drawn) [Compound P3, 4-((E)-3-(3,5-Dibromophenyl)-4,4,4-trifluorobut-1-en-1-yl)-2-(trifluoromethyl)-N—((R)-1-(3,3,3-trifluoropropanamido)ethyl)benzamide], the mortality at 50 µg/cm2 in data set [1] and in data set [2] was 50 to 100% throughout. Also, the “YFM % Control (or Mortality) rating” value in data set [3] is reported as “B (More than 0-Less than 80)”.
On to `C[C@H](NC(=O)CC(F)(F)F)NC(=O)c1ccc(/C=C/C(c2cc(Cl)c(Br)c(Cl)c2)C(F)(F)F)cc1C(F)(F)F` (stereo partly drawn) [Compound P4, 4-((E)-3-(4-Bromo-3,5-dichlorophenyl)-4,4,4-trifluorobut-1-en-1-yl)-2-(trifluoromethyl)-N—((R)-1-(3,3,3-trifluoropropanamido)ethyl)benzamide], for which the mortality at 50 µg/cm2 in data set [1] and in data set [2] was 50 to 100% in each case. Further, in data set [3], the “YFM % Control (or Mortality) rating” value is recorded as “A (80-100)”.
Regarding `Cc1cc(/C=C/C(c2cc(Cl)c(F)c(Cl)c2)C(F)(F)F)ccc1C(=O)N[C@H](C)NC(=O)CC(F)(F)F` (stereo partly drawn) [Compound P5, 4-((E)-3-(3,5-Dichloro-4-fluorophenyl)-4,4,4-trifluorobut-1-en-1-yl)-2-methyl-N—((R)-1-(3,3,3-trifluoropropanamido)ethyl)benzamide], the mortality at 50 µg/cm2 in data set [1] and in data set [2] was 50 to 100% throughout. Further, the “YFM % Control (or Mortality) rating” value in data set [3] was “A (80-100)”.
On to `Cc1cc(/C=C/C(c2cc(Br)c(Cl)c(Br)c2)C(F)(F)F)ccc1C(=O)N[C@H](C)NC(=O)CC(F)(F)F` (stereo partly drawn) [Compound P6, 4-((E)-3-(3,5-Dibromo-4-chlorophenyl)-4,4,4-trifluorobut-1-en-1-yl)-2-methyl-N—((R)-1-(3,3,3-trifluoropropanamido)ethyl)benzamide], for which the mortality at 50 µg/cm2 in data set [1] and in data set [2] was 50 to 100% throughout. For the same molecule, the “YFM % Control (or Mortality) rating” value in data set [3] is listed as “A (80-100)”.
For the molecule `Cc1cc(/C=C/C(c2cc(Br)cc(Br)c2)C(F)(F)F)ccc1C(=O)N[C@H](C)NC(=O)CC(F)(F)F` (stereo partly drawn) [Compound P7, 4-((E)-3-(3,5-Dibromophenyl)-4,4,4-trifluorobut-1-en-1-yl)-2-methyl-N—((R)-1-(3,3,3-trifluoropropanamido)ethyl)benzamide], the mortality at 50 µg/cm2 in data set [1] and in data set [2] was 50 to 100% each time. Further, the “YFM % Control (or Mortality) rating” value in data set [3] is given as “A (80-100)”.
With `C[C@H](NC(=O)CCC(F)(F)F)NC(=O)c1ccc(/C=C/C(c2cc(Br)c(Cl)c(Br)c2)C(F)(F)F)cc1C(F)(F)F` (stereo partly drawn) [Compound P10, 4-((E)-3-(3,5-Dibromo-4-chlorophenyl)-4,4,4-trifluorobut-1-en-1-yl)-N—((R)-1-(4,4,4-trifluorobutanamido)ethyl)-2-(trifluoromethyl)benzamide], the mortality at 50 µg/cm2 in data set [1] and in data set [2] was 50 to 100% in each case. Also, the “YFM % Control (or Mortality) rating” value in data set [3] is “A (80-100)”.
`C[C@H](NC(=O)CCC(F)(F)F)NC(=O)c1ccc(/C=C/C(c2cc(Br)cc(Br)c2)C(F)(F)F)cc1C(F)(F)F` (stereo partly drawn) [Compound P11, 4-((E)-3-(3,5-Dibromophenyl)-4,4,4-trifluorobut-1-en-1-yl)-N—((R)-1-(4,4,4-trifluorobutanamido)ethyl)-2-(trifluoromethyl)benzamide]: the mortality at 50 µg/cm2 in data set [1] and in data set [2] was 50 to 100% each time. In data set [3], the “YFM % Control (or Mortality) rating” value is “A (80-100)”.
With `C[C@H](NC(=O)CCC(F)(F)F)NC(=O)c1ccc(/C=C/C(c2cc(Cl)c(Br)c(Cl)c2)C(F)(F)F)cc1C(F)(F)F` (stereo partly drawn) [Compound P12, 4-((E)-3-(4-Bromo-3,5-dichlorophenyl)-4,4,4-trifluorobut-1-en-1-yl)-N—((R)-1-(4,4,4-trifluorobutanamido)ethyl)-2-(trifluoromethyl)benzamide], the mortality at 50 µg/cm2 in data set [1] and in data set [2] was 50 to 100% in each case. Moreover, the “YFM % Control (or Mortality) rating” value in data set [3] is recorded as “A (80-100)”.
